# From US10736913B1, “Use of inosine for cancer immunotherapy” (IMMUNOSPARKLE BIOSCIENCE LLC, priority 2019, dated 2020)
# Entries after “also recorded” stand apart in the source; their conditions may differ.
# Key:
# B16 tumor cells [1] = experiment: Cell apoptosis assay (Annexin V / 7-AAD flow cytometry); type: cell-based, murine; details: B16 cells in vitro; inosine same concentrations as FIG. 2A; 48 h
# Description: Tumor cells were seeded in a 6-well plate and grown for 24 h. Cells were then treated with control (vehicle) or 1, 10, 50, 100 μM inosine. After 48 h of treatment, cells were harvested by trypsinization, resuspended at 10^6 cells/ml in 1× Annexin V Binding Buffer (BD Biosciences), and 100 μl (10^5 cells) were added to each FACS tube. Cells were stained with 7-AAD (5 μl/100 μl, BD Biosciences, to assess cell death), and APC-conjugated Annexin V (5 μl/100 μl, BD Biosciences, to assess apoptosis) for 30 min and analyzed by BD FACSCanto II. FACS data were acquired using FACSDiva (BD Biosciences) and analyzed using FlowJo software (Tree Star) and the percentage of APC^+ cells obtained.
# B16 tumors = experiment: B16 melanoma tumor model in mice (tumor volume, survival); details: B16 tumor-bearing C57BL/6 mice; inosine 400 mg/kg/day oral from day 4; anti-CTLA4 100 μg + anti-PD-1 200 μg i.p. days 7, 10, 13, 16
# Description: B16 cells were injected subcutaneously into eight-week-old female C57BL/6 mice (2×10^5/mouse). Anti-CTLA4 antibody (100 μg per mouse) and anti-PD-1 antibody (200 μg per mouse) were injected i.p on days 7, 10, 13 and 16. 400 mg/kg body weight of inosine per day was orally administered to mice from day 4.
# (§1) All the cell lines were confirmed to be mycoplasma free. Cells were cultured using DMEM (Corning) with 10% fetal bovine serum (Corning) and 1% Pen/Strep (Life Technologies). Cells were incubated in an incubator maintained at 37° C. and 5% CO2. 75-80% of confluent cells were harvested for orthotopic injection.
# (§2) For the melanoma model, 2×10^5 B16 or B16-GM cells were harvested for orthotopic injection into the subcutaneous (s.c.) of C57BL/6J mice (6-8 weeks) using 0.25% Trypsin (Corning) and suspended in DPBS (Gibco).
# (§3) Treatments were given as single agents or in combination with the following regimen. Inosine (Sigma-Aldrich) was dissolved in sterilized water to yield a concentration of 40 mg/ml, and administered by oral gavage once a day at 400 mg/kg body weight. Treatment was initiated on day 4 and ended on day 21 post tumor implant. Control groups received vehicle (water) by oral gavage. […] Tumors were measured every third day with a caliper, and measurements were assessed manually by assessing the longest dimension (length) and the longest perpendicular dimension (width). […]
# [2] = background; cited from earlier work
# [3] = tested on: MHC-I (H2kb) on B16 cells; experiment: Flow cytometry of membrane MHC-I (H2kb) expression; type: cell-based, murine; details: inosine at 500
# Description: B16 cells were stained for flow cytometry to determine the membrane MHC-I expression level.
# For MHC-I expression flow analysis on the tumor cell, one million cells per condition were stained with the PE anti-mouse H-2Kb antibody (Biolegend) diluted in PBS plus 2% FBS and kept for 30 min on ice. Matched isotype control Ab was performed as a control.
# [4] = tested on: H2k1, H2d1, Stat1, Stat3, Irf1 mRNA in B16 cells; experiment: Reverse transcription quantitative PCR of antigen presentation-related and IFN signaling genes; type: cell-based, murine; details: inosine at 500
# Description: Tumor cells cDNA was prepared using 1 μg RNA with the qScript cDNA Synthesis Kit (Bio-Rad). SYBR green-based qPCR was performed using murine primers to H2k1, H2d1, Stat1, Stat3, and Irf1. Relative copy number was determined by calculating the fold-change difference in the gene of interest relative to 18sRNA (ΔCt=Ct gene of interest−Ct 18sRNA) and reported as relative mRNA expression (ΔΔCt=2^−(ΔCt sample−ΔCt control)) or fold change. qPCR was performed on an Applied Biosystems 7300 machine.
# B16 tumor cells [5] = experiment: MTT cell proliferation assay; type: cell-based, murine; details: B16 cells in vitro; inosine 10, 50, 200 μM; 0-96 h
# Description: MTT assays were used to determine the cell viability of B16 tumor cells treated with control vehicle; the concentration of inosine administered is indicated, where “Ino-10” means 10 μM Inosine; “Ino-50” means 50 μM Inosine and “Ino-200” means 200 μM Inosine.
# Cell proliferation ability was examined at 0, 24, 48, 72 h and 96 h using a Cell Proliferation Reagent Kit I (MTT; Sigma) according to the manufacturer's instruction. Cells were seeded in a 96-well plate in triplicate at a concentration of 2×10^3 cells/well. On the indicated day, the medium was removed and the MTT solution was added to the wells. Four hours later, DMSO was added and the cells were further incubated for 10 min with gentle shaking at 37° C. Finally, the optical density of each well was measured using a microplate reader at 550 nm.
# B16-GM tumors = experiment: B16-GM metastatic melanoma tumor model in mice (tumor volume, weight, lung metastasis, survival)
# Description: B16-GM cells were injected subcutaneously into eight-week-old female C57BL/6 mice (2×10^5/mouse). Anti-CTLA4 antibody (100 μg per mouse) and anti-PD-1 antibody (200 μg per mouse) were injected i.p on days 7, 10, 13 and 16. 400 mg/kg of inosine per day was orally administered to mice from day 4 to day 21.
# as §1, §2, §3
# 4T1 tumors = experiment: 4T1 breast cancer tumor model in mice (tumor volume, weight); type: in vivo; details: 4T1 tumor-bearing Balb/c mice; inosine 400 mg/kg/day oral day 4 to 21; anti-CTLA4 100 μg + anti-PD-1 200 μg i.p. days 7, 10, 13, 16
# Description: 4T1 cells were injected into the mammary fat pad of eight-week-old female Balb/c mice (2×10^5/mouse). […] Results are shown as mean±SEM. (*** indicates P<0.001).
# 4T1 cells were injected into the mammary fat pad of eight-week-old female Balb/c mice (2×10^5/mouse). […] Results are shown as mean±SEM. (** indicates P<0.01)
# [6] = tested on: CD4+ and CD8+ T cells in B16 tumors; experiment: Flow cytometry of tumor-infiltrating T lymphocytes in B16 tumors; type: in vivo, C57BL/6 mice; details: n=5 tumors
# Description: Tumors from the indicated treatment group were mechanically minced for the isolation of infiltrating lymphocytes. Cells were counted and stained for flow cytometry to determine the percentage of CD4^+ and CD8^+ T lymphocytes in total CD45^+ immune cells.
# Results are shown as mean±SEM (* P<0.05; ** P<0.01) and statistics were calculated using the unpaired t-test with Welch's correction.
# Mouse tumor samples were minced with scissors before incubation with dissociation buffer (2 mg/ml collagenase type A, 0.02 mg/ml DNase in RPMI1640 containing 5% FBS, PenStrep) with agitation at 37° C. for 45 min. Tumor samples were homogenized by repeated pipetting and filtered through a 70-μm nylon filter (BD Biosciences) in RPMI supplemented with 10% FBS to generate single-cell suspensions. Cell suspensions were washed once with complete RPMI. After lysis of red blood cells, single-cell suspensions were blocked with anti-CD16/32 (Biolegend) for 20 min on ice and then incubated with appropriate antibodies for 30 min on ice: anti-CD45-APC-Cy7, CD3-FITC, CD8-PercP-Cy5.5, CD4-PE. Dead cells and doublets were excluded on the basis of forward and side scatter and Fixable Viability Dye eFluor 450 (eBioscience). Flow cytometry was performed on FACSCanto II (BD Biosciences), and data were analyzed using FlowJo (TreeStar).
compound,measurement,setting,value
"OC[C@H]1O[C@@H](n2cnc3c(O)ncnc32)[C@H](O)[C@@H]1O [inosine, 9-[(2R,3R,4S,5R)-3,4-dihydroxy-5-(hydroxymethyl)oxolan-2-yl]-1H-purin-6-one]",apoptotic tumor cells,B16 tumor cells [1],didn't inhibit tumor cell proliferation and promote apoptosis; also recorded: doesn't induce the apoptosis
same,tumor volume / tumor growth,B16 tumors,inhibited tumor growth in vivo; also recorded: enhanced the antitumor efficacy of ICB
same,half-life,[2],approximately 15 h
same,membrane MHC-I (H2kb) expression,[3],enhances the expression of MHC-I; also recorded: increases the membrane protein level of MHC-I
same,"relative mRNA expression of antigen presentation-related genes (H2k1, H2d1) and IFN signaling genes (Stat1, Stat3, Irf1)",[4],stimulates interferon signaling and antigen presentation-related genes; also recorded: increases the expression of antigen presentation-related genes and IFN signaling genes
same,proliferation / cell viability (MTT),B16 tumor cells [5],didn't inhibit tumor cell proliferation; also recorded: doesn't inhibit the proliferation
same,tumor volume / tumor growth,"B16-GM tumors; B16-GM tumor-bearing C57BL/6 mice, inosine 400 mg/kg/day oral day 4 to 21, anti-CTLA4 100 μg + anti-PD-1 200 μg i.p. days 7, 10, 13, 16",reduced tumor size
same,lung metastasis (metastatic nodules),"B16-GM tumors; B16-GM tumor-bearing mice, day 18",significant reduction in lung metastasis
same,tumor volume / tumor growth,4T1 tumors,does not significantly affect tumor growth
same,CD8+ T cell population in tumors,[6],increased the cytotoxic CD8^+ T infiltration
